Experimental data as given in patent EP2308883A1, “New derivatives of thieno[2,3-b]pyridine and 5,6,7,8 tetrahydrothieno[2,3 b]quinoline in particular useful in the treatment of malaria” (priority 2009, dated 2011).

Test system: mammalian kinases
Conditions: compared with roscovitine and staurosporine
Description: Compound No. 22 was also tested on a small panel of 22 purified kinases, including 4 P. falciparum kinases. […] To complement this selectivity study, compound No 22 was run on two large scale selectivity panels: Prof. P. Cohen's kinase selectivity panel (76 kinases) (Bain J, Plater L, Elliott M, Shapiro N, Hastie CJ, McLauchlan H et al. (2007). The selectivity of protein kinase inhibitors: a further update. Biochem J. 408: 297-315.) and the Ambit Biosciences interaction assay (402 kinases) (Karaman MW, Herrgard S, Treiber DK, Gallant P, Atteridge CE, Campbell BT, Chan KW, Ciceri P, Davis MI, Edeen PT, Faraoni R, Floyd M, Hunt JP, Lockhart DJ, Milanov ZV, Morrison MJ, Pallares G, Patel HK, Pritchard S, Wodicka LM, Zarrinkar PP. A quantitative analysis of kinase inhibitor selectivity. Nat Biotechnol. 2008 Jan;26(1):127-32.).

Q: For `N#Cc1c(N)nc2sc(C(=O)c3cccc(Cl)c3)c(N)c2c1-c1ccccc1Cl` [Compound 22, 3,6-diamino-2-(3-chlorobenzoyl)-4-(2-chlorophenyl)thieno[2,3-b]pyridine-5-carbonitrile], which “inhibition of mammalian kinases in selectivity panels” value is on record?
A: very poor, if at all, inhibitor of mammalian kinases
